What was measured:
[1] = tested on: D(2) dopamine receptor (Sus scrofa); experiment: Compound was evaluated for the ability to displace [3H]-spiperone at Dopamine receptor D2 in porcine anterior pituitary gland as low affinity state
[2] = tested on: D(2) dopamine receptor (Sus scrofa); experiment: Proportion of high affinity state of Dopamine receptor D2 measured by compound ability to displace [3H]spiperone from porcine anterior pituitary membranes

Row | SMILES | D-2 [1] [%] | D-2 [2] [%]
1 | CN1CCc2cc(Br)cc3c2[C@H]1Cc1ccc(O)c(O)c1-3 | 49 | 62
2 | CN1CCc2cc(N)cc3c2[C@H]1Cc1ccc(O)c(O)c1-3 | 38 | 62

— ChEMBL document CHEMBL1124481, “2-Haloaporphines as potent dopamine agonists” (J Med Chem, 1989)
